Target: T1, human SSTR4 (Homo sapiens, UniProt P31391)
T1 construct: expressed in transfected cells; host or cells: CHO-K1
Test: hSSTR4 cAMP assay (cAMP accumulation, LANCE Ultra cAMP kit, CHO-K1 human SSTR4 Gi cell line)
Assay type: cell-based
Details: functional agonism, forskolin 10 μM stimulated CHO-K1 human SSTR4 Gi cells, 30 min at 25° C., at least duplicate, averaged; read-out: hSSTR4 EC50
Procedure: cAMP accumulation assay using a CHO-K1 human SSTR4 Gi cell line.
Quantification of intracellular cAMP was performed using the LANCE Ultra cAMP assay kit from Revvity according to the manufacturer's instructions. CHO-K1 human SSTR4 Gi cell were either seeded in a density of 3K cells per well into a 384 well plate and incubated at 37° C. and 5% CO2 for 18-20 h or a stock of frozen cells were defrosted and seeded in a density of 5K cells per well without any further cultivation directly prior to the assay in a total volume of 5 μL in stimulation buffer. For pre-cultured cells, medium was replaced with 5 μL stimulation buffer before the assay. Cells were then stimulated with forskolin (final concentration 10 μM) and test compound (SSTR4 agonist) in increasing concentrations in duplicates for 30 min at 25° C. After stimulation, cells were lysed by addition of 10 μL of detection buffer (provided with the kit) and cell lysates were further diluted to ensure final cAMP concentrations fitted well into the dynamic range of the test kit. 10 μL of the diluted lysates were then added to respective wells of an OptiPlate-384 microplate. Thereafter, 5 μL of 4× Eu-cAMP tracer working solution was added, followed by addition of 5 μL of ULight-anti-cAMP working solution. The plate was then incubated for 1 h at 25° C. before reading on a TR-FRET microplate instrument. Data were normalized to cAMP high (forskolin only) and low control (forskolin+100 nM SST14) before fitting to a 4-Paramter logistic function.
All data was generated according to the cAMP assay conditions described above in at least duplicate and results are averaged and rounded to two significant figures.

T1 sequence (P31391 whole entry): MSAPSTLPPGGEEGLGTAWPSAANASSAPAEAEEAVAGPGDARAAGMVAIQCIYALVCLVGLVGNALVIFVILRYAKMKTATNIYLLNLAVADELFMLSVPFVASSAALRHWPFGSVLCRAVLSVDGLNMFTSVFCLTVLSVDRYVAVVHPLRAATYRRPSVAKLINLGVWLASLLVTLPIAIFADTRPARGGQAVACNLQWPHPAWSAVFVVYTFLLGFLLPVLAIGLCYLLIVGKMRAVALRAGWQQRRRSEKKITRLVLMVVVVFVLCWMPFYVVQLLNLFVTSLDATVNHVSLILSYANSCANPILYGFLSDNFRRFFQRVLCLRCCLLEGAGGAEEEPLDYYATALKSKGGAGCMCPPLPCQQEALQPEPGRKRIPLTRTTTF

| Structure (SMILES) | EC50 |
| --- | --- |
| Cc1cccc2c(C(C)(C)NC(=O)[C@@H]3CNCCN3CC3COC3)n[nH]c12 [SC-122, (S)—N-(2-(7-methyl-1H-indazol-3-yl)propan-2-yl)-1-(oxetan-3-ylmethyl)piperazine-2-carboxamide] | 1.2 nM |
| Cc1cccn2c(C(C)(C)NC(=O)[C@@H]3CN(CC(F)F)CCN3)ncc12 [SC-050, (S)-4-(2,2-difluoroethyl)-N-(2-(8-methylimidazo[1,5-a]pyridin-3-yl)propan-2-yl)piperazine-2-carboxamide] | 8200 nM |
| Cc1cccn2c(C(C)(C)NC(=O)[C@@H]3CN(CC(F)(F)F)CCN3)ncc12 [SC-049, (S)-N-(2-(8-methylimidazo[1,5-a]pyridin-3-yl)propan-2-yl)-4-(2,2,2-trifluoroethyl)piperazine-2-carboxamide] | 3300 nM |
| Cc1cccn2c(C(C)(C)NC(=O)[C@@H]3CNCCN3C(=O)C3CC(F)(F)C3)ncc12 (racemic) [SC-011, rac-1-(3,3-difluorocyclobutane-1-carbonyl)-N-(2-(8-methylimidazo[1,5-a]pyridin-3-yl)propan-2-yl)piperazine-2-carboxamide] | 1300 nM |
| Cc1cccn2c(C(C)(C)NC(=O)C3CNCCN3Cc3cncnc3)ncc12 (racemic) [SC-005, rac-N-(2-(8-methylimidazo[1,5-a]pyridin-3-yl)propan-2-yl)-1-(pyrimidin-5-ylmethyl)piperazine-2-carboxamide] | 2.3 nM |
| CN1CCNC[C@H]1C(=O)NC(C)(C)c1nnc2c(Cl)cccn12 [SC-125, (S)-N-(2-(8-chloro-[1,2,4]triazolo[4,3-a]pyridin-3-yl)propan-2-yl)-1-methylpiperazine-2-carboxamide] | 1110 nM |
| Cc1cccn2c(C(C)(C)NC(=O)[C@@H]3CNCCN3Cc3ccc(C(F)(F)F)cc3)ncc12 [SC-028, (S)-N-(2-(8-methylimidazo[1,5-a]pyridin-3-yl)propan-2-yl)-1-(4-(trifluoromethyl)benzyl)piperazine-2-carboxamide] | 0.17 nM |
| Cc1cccn2c(C(C)(C)NC(=O)[C@@H]3CNCCN3CC3CCOCC3)ncc12 [SC-086, (S)-N-(2-(8-methylimidazo[1,5-a]pyridin-3-yl)propan-2-yl)-1-((tetrahydro-2H-pyran-4-yl)methyl)piperazine-2-carboxamide] | 0.16 nM |
| Cn1nc(C(C)(C)NC(=O)[C@@H]2CNCCN2CC(F)(F)F)c2ccccc21 [SC-102, (S)-N-(2-(1-methyl-1H-indazol-3-yl)propan-2-yl)-1-(2,2,2-trifluoroethyl)piperazine-2-carboxamide] | 0.84 nM |
| Cc1cccn2c(C(C)(C)NC(=O)C3CNCCN3Cc3ncccn3)ncc12 (racemic) [SC-001, rac-N-(2-(8-methylimidazo[1,5-a]pyridin-3-yl)propan-2-yl)-1-(pyrimidin-2-ylmethyl)piperazine-2-carboxamide] | 13 nM |
| Cc1cccn2c(C(C)(C)NC(=O)[C@@H]3CNCCN3C(C)C)ncc12 [SC-035, (S)-1-isopropyl-N-(2-(8-methylimidazo[1,5-a]pyridin-3-yl)propan-2-yl)piperazine-2-carboxamide] | 0.35 nM |
| Cc1cccn2c(C(C)(C)NC(=O)[C@@H]3CN(C)CCN3CC(F)(F)F)ncc12 [SC-045, (S)-4-methyl-N-(2-(8-methylimidazo[1,5-a]pyridin-3-yl)propan-2-yl)-1-(2,2,2-trifluoroethyl)piperazine-2-carboxamide] | 1.4 nM |
| Cc1cccn2c(C(C)(C)NC(=O)C3CNCCN3c3ccccc3)ncc12 (racemic) [SC-093, rac-N-(2-(8-methylimidazo[1,5-a]pyridin-3-yl)propan-2-yl)-1-phenylpiperazine-2-carboxamide] | 0.86 nM |
| Cc1cccc2c(C(C)(C)NC(=O)[C@@H]3CNCCN3C)n[nH]c12 [SC-094, (S)-1-methyl-N-(2-(7-methyl-1H-indazol-3-yl)propan-2-yl)piperazine-2-carboxamide] | 0.21 nM |
| Cc1cccc2c(C(C)(C)NC(=O)[C@@H]3CNCCN3C)nn(C)c12 [SC-126, (S)-N-(2-(1,7-dimethyl-1H-indazol-3-yl)propan-2-yl)-1-methylpiperazine-2-carboxamide] | 2.6 nM |
| CN1CCN[C@H](C(=O)NC(C)(C)c2ncc3c(C4CC4)cccn23)C1 [SC-119, (S)-N-(2-(8-cyclopropylimidazo[1,5-a]pyridin-3-yl)propan-2-yl)-4-methylpiperazine-2-carboxamide] | 540 nM |
| CN1CCN[C@H](C(=O)NC(C)(C)c2ncc3c(Cl)cccn23)C1 [SC-105, (S)-N-(2-(8-chloroimidazo[1,5-a]pyridin-3-yl)propan-2-yl)-4-methylpiperazine-2-carboxamide] | 31 nM |

| Structure (SMILES) | EC50 |
| --- | --- |
| Cc1cccn2c(C(C)(C)NC(=O)[C@@H]3CN(CC4CCC4)CCN3)ncc12 [SC-068, (S)-4-(cyclobutylmethyl)-N-(2-(8-methylimidazo[1,5-a]pyridin-3-yl)propan-2-yl)piperazine-2-carboxamide] | 590 nM |
| Cc1cccc2c(C(C)(C)NC(=O)[C@@H]3CNCCN3CC(F)(F)F)n[nH]c12 [SC-098, (S)-N-(2-(7-methyl-1H-indazol-3-yl)propan-2-yl)-1-(2,2,2-trifluoroethyl)piperazine-2-carboxamide] | 0.07 nM |
| Cc1cccn2c(C(C)(C)NC(=O)[C@@H]3CNCCN3Cc3ccccc3)ncc12 [SC-085, (S)-1-benzyl-N-(2-(8-methylimidazo[1,5-a]pyridin-3-yl)propan-2-yl)piperazine-2-carboxamide] | 0.11 nM |
| Cc1cccn2c(C(C)(C)NC(=O)[C@@H]3CN(C(=O)CC4CCOCC4)CCN3)ncc12 [SC-079, (S)-N-(2-(8-methylimidazo[1,5-a]pyridin-3-yl)propan-2-yl)-4-(2-(tetrahydro-2H-pyran-4-yl)acetyl)piperazine-2-carboxamide] | 15000 nM |
| Cc1cccn2c(C(C)(C)NC(=O)[C@@H]3CN(Cc4ccn(C)n4)CCN3)ncc12 [SC-066, (S)-4-((1-methyl-1H-pyrazol-3-yl)methyl)-N-(2-(8-methylimidazo[1,5-a]pyridin-3-yl)propan-2-yl)piperazine-2-carboxamide] | 1600 nM |
| Cc1cccn2c(C(C)(C)NC(=O)[C@@H]3CN(C(=O)c4cnn(C)c4)CCN3)ncc12 [SC-083, (S)-4-(1-methyl-1H-pyrazole-4-carbonyl)-N-(2-(8-methylimidazo[1,5-a]pyridin-3-yl)propan-2-yl)piperazine-2-carboxamide] | 6700 nM |
| Cn1nc(C(C)(C)NC(=O)[C@@H]2CNCCN2CC2CCOCC2)c2ccccc21 [SC-103, (S)-N-(2-(1-methyl-1H-indazol-3-yl)propan-2-yl)-1-((tetrahydro-2H-pyran-4-yl)methyl)piperazine-2-carboxamide] | 0.22 nM |
| Cc1cccc2c(C(C)(C)NC(=O)[C@@H]3CNCCN3C)noc12 [SC-124, (S)-1-methyl-N-(2-(7-methylbenzo[d]isoxazol-3-yl)propan-2-yl)piperazine-2-carboxamide] | 4.7 nM |
| Cc1cccn2c(C(C)(C)NC(=O)[C@@H]3CNCCN3CC(F)(F)F)ncc12 [SC-017, (S)-N-(2-(8-methylimidazo[1,5-a]pyridin-3-yl)propan-2-yl)-1-(2,2,2-trifluoroethyl)piperazine-2-carboxamide] | 0.2 nM |
| Cc1cccn2c(C(C)(C)NC(=O)[C@@H]3CN(C)CCN3C)ncc12 [SC-046, (S)-1,4-dimethyl-N-(2-(8-methylimidazo[1,5-a]pyridin-3-yl)propan-2-yl)piperazine-2-carboxamide] | 2.8 nM |
| CN1CCNC[C@@H]1C(=O)NC(C)(C)c1ncc2c(Cl)cccn12 [SC-109, (R)-N-(2-(8-chloroimidazo[1,5-a]pyridin-3-yl)propan-2-yl)-1-methylpiperazine-2-carboxamide] | 1600 nM |
| Cc1cccn2c(C(C)(C)NC(=O)[C@@H]3CN(C)CCN3CC3CCOCC3)ncc12 [SC-047, (S)-4-methyl-N-(2-(8-methylimidazo[1,5-a]pyridin-3-yl)propan-2-yl)-1-((tetrahydro-2H-pyran-4-yl)methyl)piperazine-2-carboxamide] | 0.45 nM |
| Cc1cccn2c(C(C)(C)NC(=O)[C@@H]3CN(C(C)C)CCN3)ncc12 [SC-052, (S)-4-isopropyl-N-(2-(8-methylimidazo[1,5-a]pyridin-3-yl)propan-2-yl)piperazine-2-carboxamide] | 22 nM |
| Cc1cccn2c(C(C)(C)NC(=O)[C@@H]3CNCCN3CC(F)F)ncc12 [SC-127, (S)-1-(2,2-difluoroethyl)-N-(2-(8-methylimidazo[1,5-al]pyridin-3-yl)propan-2-yl)piperazine-2-carboxamide] | 1.1 nM |
| Cc1cccn2c(C(C)(C)NC(=O)[C@@H]3CNCCN3C(C)C)ncc12 (racemic) [SC-002, rac-1-isopropyl-N-(2-(8-methylimidazo[1,5-a]pyridin-3-yl)propan-2-yl)piperazine-2-carboxamide] | 1.1 nM |
| Cc1cccn2c(C(C)(C)NC(=O)[C@@H]3CN(C(=O)C4CC(F)(F)C4)CCN3)ncc12 [SC-080, (S)-4-(3,3-difluorocyclobutane-1-carbonyl)-N-(2-(8-methylimidazo[1,5-a]pyridin-3-yl)propan-2-yl)piperazine-2-carboxamide] | > 10000 nM |

— patent US20250368625A1, “PIPERAZINES” (Grünenthal GmbH, priority 2024, published 2025)
